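Tested at 5 concentrations; 48 h exposure; 96-well plates; endpoints linearly interpolated, else capped at highest concentration. Definition used: TGI = concentration required for complete inhibition of growth.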
Key:
Test in all cases: NCI anticancer screen, dose series, 48 h
M19-MEL melanoma = test system: M19-MEL melanoma
COLO 205 colon = test system: COLO 205 colon
OVCAR-3 ovarian = test system: OVCAR-3 ovarian
UACC-62 melanoma = test system: UACC-62 melanoma
SK-MEL-5 melanoma = test system: SK-MEL-5 melanoma
NCI-H460 lung = test system: NCI-H460 lung
MALME-3M melanoma = test system: MALME-3M melanoma
SF-268 CNS = test system: SF-268 CNS
DMS 273 small cell lung = test system: DMS 273 small cell lung
A498 renal = test system: A498 renal
LXFL 529 NSCLC = test system: LXFL 529 NSCLC
SK-OV-3 ovarian = test system: SK-OV-3 ovarian
SF-539 CNS = test system: SF-539 CNS
KM12 colon = test system: KM12 colon
DMS 114 small cell lung = test system: DMS 114 small cell lung
HL-60(TB) leukemia = test system: HL-60(TB) leukemia
KM20L2 colon = test system: KM20L2 colon
U251 CNS = test system: U251 CNS
TK-10 renal = test system: TK-10 renal
786-0 renal = test system: 786-0 renal
EKVX NSCLC = test system: EKVX NSCLC
MOLT-4 leukemia = test system: MOLT-4 leukemia
NCI-H522 lung = test system: NCI-H522 lung
SNB-75 CNS = test system: SNB-75 CNS
DLD-1 colon = test system: DLD-1 colon
XF 498 CNS = test system: XF 498 CNS
NCI-H23 lung = test system: NCI-H23 lung
A549 NSCLC = test system: A549 NSCLC
HOP-92 NSCLC = test system: HOP-92 NSCLC
SK-MEL-2 melanoma = test system: SK-MEL-2 melanoma
ACHN renal = test system: ACHN renal
NCI-H226 lung = test system: NCI-H226 lung
OVCAR-5 ovarian = test system: OVCAR-5 ovarian
RXF 393 renal = test system: RXF 393 renal
HCC-2998 colon = test system: HCC-2998 colon
UACC-257 melanoma = test system: UACC-257 melanoma
HOP-18 NSCLC = test system: HOP-18 NSCLC
SNB-19 CNS = test system: SNB-19 CNS
OVCAR-8 ovarian = test system: OVCAR-8 ovarian
M14 melanoma = test system: M14 melanoma
SN12C renal = test system: SN12C renal
CCRF-CEM leukemia = test system: CCRF-CEM leukemia
HT29 colon = test system: HT29 colon
OVCAR-4 ovarian = test system: OVCAR-4 ovarian
SF-295 CNS = test system: SF-295 CNS
K-562 leukemia = test system: K-562 leukemia
LOX IMVI melanoma = test system: LOX IMVI melanoma
SK-MEL-28 melanoma = test system: SK-MEL-28 melanoma
IGROV1 ovarian = test system: IGROV1 ovarian
RPMI-8226 leukemia = test system: RPMI-8226 leukemia
SR leukemia = test system: SR leukemia
SW-620 colon = test system: SW-620 colon
HCT-15 colon = test system: HCT-15 colon
HCT-116 colon = test system: HCT-116 colon
UO-31 renal = test system: UO-31 renal
SNB-78 CNS = test system: SNB-78 CNS
CAKI-1 renal = test system: CAKI-1 renal
HOP-62 NSCLC = test system: HOP-62 NSCLC

## CCCNCC(=O)O[C@]1(CC)C(=O)OCc2c1cc1n(c2=O)Cc2cc3ccccc3nc2-1
M19-MEL melanoma
  TGI: 1.96 µM
COLO 205 colon
  TGI: 3.07 µM
OVCAR-3 ovarian
  TGI: 2.63 µM
UACC-62 melanoma
  TGI: 1.12 µM
SK-MEL-5 melanoma
  TGI: 0.304 µM
NCI-H460 lung
  TGI: 0.154 µM
MALME-3M melanoma
  TGI: 4.1 µM
SF-268 CNS
  TGI: 2.46 µM
DMS 273 small cell lung
  TGI: 0.114 µM
A498 renal
  TGI: 0.849 µM
LXFL 529 NSCLC
  TGI: 67.6 µM
SK-OV-3 ovarian
  TGI: > 100 µM
SF-539 CNS
  TGI: 0.136 µM
KM12 colon
  TGI: 8.05 µM
DMS 114 small cell lung
  TGI: 0.941 µM
HL-60(TB) leukemia
  TGI: 0.553 µM
KM20L2 colon
  TGI: 19.2 µM
U251 CNS
  TGI: 0.244 µM
TK-10 renal
  TGI: > 100 µM
786-0 renal
  TGI: 0.117 µM
EKVX NSCLC
  TGI: > 100 µM
MOLT-4 leukemia
  TGI: 0.0699 µM
NCI-H522 lung
  TGI: 1.63 µM
SNB-75 CNS
  TGI: 0.537 µM
DLD-1 colon
  TGI: > 100 µM
XF 498 CNS
  TGI: 0.652 µM
NCI-H23 lung
  TGI: 0.321 µM
A549 NSCLC
  TGI: 1.98 µM
HOP-92 NSCLC
  TGI: 3.6 µM
SK-MEL-2 melanoma
  TGI: 3.68 µM
ACHN renal
  TGI: 0.233 µM
NCI-H226 lung
  TGI: 0.331 µM
OVCAR-5 ovarian
  TGI: 3.96 µM
RXF 393 renal
  TGI: 0.39 µM
HCC-2998 colon
  TGI: 4.36 µM
UACC-257 melanoma
  TGI: 1.88 µM
HOP-18 NSCLC
  TGI: > 100 µM
SNB-19 CNS
  TGI: > 100 µM
OVCAR-8 ovarian
  TGI: 8.33 µM
M14 melanoma
  TGI: 1.82 µM
SN12C renal
  TGI: 0.215 µM
CCRF-CEM leukemia
  TGI: 0.308 µM
HT29 colon
  TGI: > 100 µM
OVCAR-4 ovarian
  TGI: 3.99 µM
SF-295 CNS
  TGI: 2.1 µM
K-562 leukemia
  TGI: > 100 µM
LOX IMVI melanoma
  TGI: 0.662 µM
SK-MEL-28 melanoma
  TGI: 32.8 µM
IGROV1 ovarian
  TGI: 4.68 µM
RPMI-8226 leukemia
  TGI: 0.88 µM

## CCOC(=O)C(C(=O)OCC)c1ccc([N+](=O)[O-])o1
M19-MEL melanoma
  TGI: 33.2 µM
COLO 205 colon
  TGI: 10.4 µM
OVCAR-3 ovarian
  TGI: 15.8 µM
UACC-62 melanoma
  TGI: 35.9 µM
SK-MEL-5 melanoma
  TGI: 31.5 µM
NCI-H460 lung
  TGI: 44.9 µM
MALME-3M melanoma
  TGI: 17.6 µM
SR leukemia
  TGI: > 26.4 µM
SF-268 CNS
  TGI: 70.3 µM
DMS 273 small cell lung
  TGI: 33.4 µM
LXFL 529 NSCLC
  TGI: 11.2 µM
SK-OV-3 ovarian
  TGI: > 100 µM
SF-539 CNS
  TGI: 35.9 µM
KM12 colon
  TGI: 33.9 µM
SW-620 colon
  TGI: 9.94 µM
HL-60(TB) leukemia
  TGI: > 22.3 µM
KM20L2 colon
  TGI: 36.8 µM
U251 CNS
  TGI: 36.8 µM
TK-10 renal
  TGI: 30.8 µM
786-0 renal
  TGI: 13.4 µM
EKVX NSCLC
  TGI: 35.4 µM
MOLT-4 leukemia
  TGI: 19.8 µM
NCI-H522 lung
  TGI: 3.26 µM
HCT-15 colon
  TGI: 33.6 µM
SNB-75 CNS
  TGI: 37.3 µM
DLD-1 colon
  TGI: 18.6 µM
XF 498 CNS
  TGI: 31 µM
NCI-H23 lung
  TGI: 32.3 µM
HCT-116 colon
  TGI: 29 µM
A549 NSCLC
  TGI: 43.4 µM
HOP-92 NSCLC
  TGI: 15 µM
SK-MEL-2 melanoma
  TGI: 34.1 µM
ACHN renal
  TGI: 22.6 µM
NCI-H226 lung
  TGI: 45.7 µM
UO-31 renal
  TGI: 29 µM
SNB-78 CNS
  TGI: 34.8 µM
OVCAR-5 ovarian
  TGI: 32.1 µM
CAKI-1 renal
  TGI: 16.1 µM
RXF 393 renal
  TGI: 24.9 µM
HCC-2998 colon
  TGI: 31.3 µM
UACC-257 melanoma
  TGI: 28.1 µM
HOP-18 NSCLC
  TGI: 34.2 µM
SNB-19 CNS
  TGI: > 100 µM
OVCAR-8 ovarian
  TGI: 16.1 µM
HOP-62 NSCLC
  TGI: > 75.5 µM
M14 melanoma
  TGI: 26.6 µM
SN12C renal
  TGI: 32.2 µM
CCRF-CEM leukemia
  TGI: > 22.8 µM
HT29 colon
  TGI: 31.2 µM
OVCAR-4 ovarian
  TGI: 32.4 µM
SF-295 CNS
  TGI: 36.8 µM
K-562 leukemia
  TGI: > 30.7 µM
LOX IMVI melanoma
  TGI: 9.41 µM
SK-MEL-28 melanoma
  TGI: 27.1 µM
IGROV1 ovarian
  TGI: 42.1 µM
RPMI-8226 leukemia
  TGI: 23.6 µM

## COc1cc(C2c3cc4c(cc3[C@H](NS(C)(=O)=O)C3COC(=O)[C@H]23)OCO4)cc(OC)c1OC (stereo not given in full)
COLO 205 colon
  TGI: 0.436 µM
UACC-62 melanoma
  TGI: > 100 µM
NCI-H460 lung
  TGI: > 100 µM
MALME-3M melanoma
  TGI: > 100 µM
SR leukemia
  TGI: > 100 µM
SF-268 CNS
  TGI: > 100 µM
DMS 273 small cell lung
  TGI: > 100 µM
LXFL 529 NSCLC
  TGI: > 100 µM
KM12 colon
  TGI: > 100 µM
HL-60(TB) leukemia
  TGI: 0.883 µM
TK-10 renal
  TGI: > 100 µM
786-0 renal
  TGI: > 100 µM
MOLT-4 leukemia
  TGI: 18.5 µM
HCT-15 colon
  TGI: > 100 µM
DLD-1 colon
  TGI: > 100 µM
XF 498 CNS
  TGI: > 100 µM
SK-MEL-2 melanoma
  TGI: > 100 µM
ACHN renal
  TGI: > 100 µM
NCI-H226 lung
  TGI: 0.625 µM
UO-31 renal
  TGI: > 100 µM
OVCAR-5 ovarian
  TGI: > 100 µM
HCC-2998 colon
  TGI: > 100 µM
UACC-257 melanoma
  TGI: > 100 µM
HOP-18 NSCLC
  TGI: > 100 µM
OVCAR-8 ovarian
  TGI: > 100 µM
M14 melanoma
  TGI: > 100 µM
SN12C renal
  TGI: > 100 µM
CCRF-CEM leukemia
  TGI: > 100 µM
HT29 colon
  TGI: > 100 µM
K-562 leukemia
  TGI: > 100 µM
LOX IMVI melanoma
  TGI: > 100 µM
RPMI-8226 leukemia
  TGI: 46.3 µM

## CCCCC(C(=O)CCC(=O)Nc1ccc(Cl)c(Cl)c1)C(=O)C(C)C (stereo not given)
M19-MEL melanoma
  TGI: > 100 µM
COLO 205 colon
  TGI: > 100 µM
OVCAR-3 ovarian
  TGI: > 100 µM
UACC-62 melanoma
  TGI: > 100 µM
SK-MEL-5 melanoma
  TGI: > 100 µM
NCI-H460 lung
  TGI: > 100 µM
MALME-3M melanoma
  TGI: > 100 µM
SR leukemia
  TGI: > 100 µM
SF-268 CNS
  TGI: > 100 µM
DMS 273 small cell lung
  TGI: > 100 µM
A498 renal
  TGI: > 100 µM
LXFL 529 NSCLC
  TGI: > 100 µM
SK-OV-3 ovarian
  TGI: > 100 µM
SF-539 CNS
  TGI: > 100 µM
KM12 colon
  TGI: > 100 µM
SW-620 colon
  TGI: > 100 µM
DMS 114 small cell lung
  TGI: > 100 µM
HL-60(TB) leukemia
  TGI: > 100 µM
KM20L2 colon
  TGI: > 100 µM
U251 CNS
  TGI: > 100 µM
TK-10 renal
  TGI: > 100 µM
786-0 renal
  TGI: > 100 µM
EKVX NSCLC
  TGI: > 100 µM
MOLT-4 leukemia
  TGI: > 100 µM
NCI-H522 lung
  TGI: > 100 µM
HCT-15 colon
  TGI: > 100 µM
SNB-75 CNS
  TGI: 75 µM
DLD-1 colon
  TGI: > 100 µM
NCI-H23 lung
  TGI: > 100 µM
HCT-116 colon
  TGI: > 100 µM
A549 NSCLC
  TGI: > 100 µM
HOP-92 NSCLC
  TGI: > 100 µM
SK-MEL-2 melanoma
  TGI: > 100 µM
ACHN renal
  TGI: > 100 µM
NCI-H226 lung
  TGI: > 100 µM
UO-31 renal
  TGI: > 100 µM
SNB-78 CNS
  TGI: > 100 µM
OVCAR-5 ovarian
  TGI: 88.8 µM
CAKI-1 renal
  TGI: > 100 µM
RXF 393 renal
  TGI: > 100 µM
HCC-2998 colon
  TGI: > 100 µM
UACC-257 melanoma
  TGI: > 100 µM
HOP-18 NSCLC
  TGI: > 100 µM
SNB-19 CNS
  TGI: > 100 µM
OVCAR-8 ovarian
  TGI: > 100 µM
HOP-62 NSCLC
  TGI: > 100 µM
M14 melanoma
  TGI: > 100 µM
SN12C renal
  TGI: > 100 µM
CCRF-CEM leukemia
  TGI: > 100 µM
HT29 colon
  TGI: > 100 µM
OVCAR-4 ovarian
  TGI: > 100 µM
SF-295 CNS
  TGI: > 100 µM
K-562 leukemia
  TGI: > 100 µM
LOX IMVI melanoma
  TGI: > 100 µM
SK-MEL-28 melanoma
  TGI: > 100 µM
IGROV1 ovarian
  TGI: > 100 µM
RPMI-8226 leukemia
  TGI: > 100 µM

Reference: PubChem BioAssay (NCI)
